# From patent US4918099A, “Drug, preparation and use thereof” (priority 1985, dated 1990)
# Read-outs that look alike come from different tables or passages of the source.
# Experiments:
# insulin receptors = experiment: 125I-insulin binding to erythrocytes of brazilin treated diabetic mice
# Experimental: For interpreting these findings, further tests were made with the aim to find out whether brazilin changes the affinity of the insulin receptors or can possibly increase the number of the insulin receptors.
# From the laboratory animals of the above-mentioned control group (diabetic mice) and the test group (diabetic brazilin treated mice) erythrocytes (2.6×10^9 /ml) were taken, ^125 I-insulin was bound thereto (85 pM^125 I), and thereupon incubated in the presence of increasing amounts of unlabelled insulin (32 pM to 1.8 / μm) at 15° C. for 120 min. The amount of specifically bound ^125 I-insulin was then determined by subtracting the non-specifically bound insulin (10 ng/ml). The results obtained are shown in the graph of FIG. 6.
# [1] = Blood sugar lowering effect of brazilin in streptozotocin diabetic SD rats; type: in vivo
# Experimental: By intraperitoneally administering streptozotocin (70 mg per 1 kg body weight in 0.1M of citrate buffer solution, pH 4.0) diabetes was induced in SD rats. 20 days after the injection of streptozotocin the blood sugar values of the laboratory animals were measured. The hyperglycemic rats were divided into two groups, viz. into a control group and a test group. For 10 days a dose of 110 mg of brazilin per kg body weight was daily administered to the animals of the test group. Then, the blood sugar values were measured again.
# [2] = system: erythrocyte deformability; experiment: Erythrocyte deformability (filtration rate of blood); type: in vivo, rats
# Experimental: Increased blood viscosity and reduced erythrocyte deformability are typical pathological states of diabetic subjects. The effect of brazilin administration to diabetic laboratory animals (rats) on the blood viscosity and erythrocyte deformability of these animals was examined.
# For administering brazilin, the laboratory animals were daily injected intraperitoneally with a dose of 100 mg of brazilin per kg body weight for 10 days. For inducing diabetes, a dose of 175 mg of alloxan per kg body weight was administered intraperitoneally.
# For determining the erythrocyte deformability, the filtration rate of blood of the various laboratory animals containing approximately 4.9×10^12 erythrocytes per l was determined under common, standardized conditions.
# [3] = Body weight and blood sugar of the rats of the MDA test; type: in vivo; details: on 30th day
# Experimental: Rats were divided into four test groups, viz.
# Group B: Normal rats (8 laboratory animals) to which an aqueous brazilin solution (comprising 110 mg of brazilin per kg body weight) was daily administered from the 20th to the 30th day
# Group D: Diabetic rats (10 laboratory animals); for inducing diabetes, a dose of 70 mg of streptozotocin per kg body weight in 0.1M citrate buffer solution (pH 4.0) was administered intraperitoneally to normal rats on the 1st test day. From the 20th to the 30th day of the test aqueous brazilin solution (comprising 110 mg of brazilin per kg body weight) was daily administered orally to these diabetic rats. (Instead of an aqueous brazilin solution, the same amount of distilled water was administered to the laboratory animals of the groups A and C from the 20th to the 30th day.)
# [4] = system: platelet aggregation in diabetic human plasma; experiment: Platelet aggregation in diabetic human plasma induced by ADP; type: cell-based
# Experimental: The platelet aggregation was determined by a tubimetric method in a dual-channel aggregometer, assuming that a platelet-poor plasma represented 100% aggregation and that a platelet-rich plasma represented 0% aggregation. Each aggregometer tube was charged with 40 μl of platelet-rich plasma and 50 μl of test sample solution. The mixture was incubated at 37° C. for 2 min., whereupon 50 μl of ADP solution were added. Percent inhibition of the platelet aggregation caused by the test sample solution was calculated as follows: [formula]
# lysosomal glycosidases = experiment: Normalizing effect on lysosomal glycosidases (overall); type: in vivo; details: kidney, diabetic mice
# Description: (§1) Possibly, the lysosomal glycosidases active in the kidneys are involved in the micro-angiopathy accompanying diabetes mellitus. Therefore, the lysosomal glycosidase activities upon administration of brazilin and full extract were examined.
# (§2) A number of mice was divided into three groups. Group I, which was used as control group, remained untreated. To the rest of the mice diabetes was induced by administering alloxan. Part of these diabetic mice remained untreated (diabetic control group II); to the rest of the diabetic mice a dose of 100 mg of brazilin per kg body weight was administered daily. After a test period of 10 and 30 days, respectively, kidney tissue was taken from the laboratory animals and the enzyme fraction was determined. In particular, incubation was carried out for 30 min at 37° C., the reaction was stopped by adding 0.05M glycine-NaOH buffer solution (pH 10.4), centrifugation was carried out at 3000 U/min for 10 min, and the amount of p-nitrophenol formed per min and per mg of protein was determined spectrophotometrically at 410 nm at the supernatant.
# β-galactosidase = experiment: Lysosomal enzyme activity in kidney tissue; type: in vivo, mice
# Description: as §1, §2
# α-mannosidase = experiment: Lysosomal enzyme activity in kidney tissue; type: in vivo, mice
# Description: as §1, §2
# β-glucuronidase = experiment: Lysosomal enzyme activity in kidney tissue; type: in vivo, mice
# Description: as §1, §2
smiles,measurement,setting,value
Oc1ccc2c(c1)OC[C@]1(O)Cc3cc(O)c(O)cc3[C@H]21 [brazilin],affinity of the insulin receptors,"insulin receptors; erythrocytes, 15° C., 120 min, treated vs. control (FIGS. 6, 7)",no significant affinity differences
same,number of insulin receptors,"insulin receptors; peripheral erythrocytes, treated vs. control",increase of the number of the peripheral insulin receptors
same,Blood sugar,"[1]; diabetic rats, 30 days after onset of diabetes, 110 mg/kg daily 10 days, before treatment (20 days) 266 ± 16.7, diabetic control 337 ± 45.6",165 ± 42.7 mg/100 ml
same,Blood sugar,"[1]; normal rats, brazilin treated, 30 days, normal control 79 ± 22.2",77 ± 20.3 mg/100 ml
same,lowering of the blood sugar values,"[1]; streptozotocin diabetic rats, 110 mg/kg daily",significant lowering of the blood sugar values
same,Filtration rate,"[2]; alloxan diabetic rats + brazilin, P < 0.01 vs. untreated and vs. diabetic control (17.4)",19.6 ± 0.4 mL/min
same,effect on filtration rate of diabetic animals,[2]; diabetic rats + brazilin,significant increase of the filtration rate
same,effect on erythrocyte deformability,[2]; diabetic rats vs. control group,significant increase of the erythrocyte deformability
same,Filtration rate,"[2]; normal rats + brazilin 100 mg/kg i.p. 10 days, normal 22.9",23.1 ± 0.3 mL/min
same,effect on filtration rate of normal animals,[2]; untreated control group + brazilin,did not signficantly influence the filtration rate
same,Blood sugar,"[3]; Group B (normal + brazilin), normal control 79",77 ± 20.3 mg/100 ml
same,Body weight,"[3]; Group B (normal + brazilin), normal control 222",226 ± 24.4 g
same,Blood sugar,"[3]; Group D (diabetic + brazilin), 266 on 20th day, diabetic control 337",165 ± 42.7 mg/100 ml
same,Body weight,"[3]; Group D (diabetic + brazilin), diabetic control 185",206 ± 9.61 g
same,"T/min, Aggregation (first value)","[4]; 10^-3 M, control 78.7",8.75%
same,"Tmax, Aggregation (first value)","[4]; 10^-3 M, control 78.7",46.3%
same,"Tmax, Aggregation (first value)","[4]; 10^-4 M, control 78.7",70.0%
same,activity at 1000 µM,"[4]; Homo sapiens, Platelet, 10^-3 M, control 100, read-out: Tmax, Aggregation relative to control (second value)",58.8%
same,inhibition at 1000 µM,"[4]; Homo sapiens, Platelet, 10^-3 M, read-out: T/min, Inhibition",88.9%
same,inhibition at 1000 µM,"[4]; Homo sapiens, Platelet, 10^-3 M, read-out: Tmax, Inhibition",41.2%
same,activity at 100 µM,"[4]; Homo sapiens, Platelet, 10^-4 M, control 100, read-out: Tmax, Aggregation relative to control (second value)",88.9%
same,inhibition at 100 µM,"[4]; Homo sapiens, Platelet, 10^-4 M, read-out: Tmax, Inhibition",11.1%
same,inhibition of the platelet aggregation,[4]; conclusion on Tables 12 and 13,considerable inhibition of the platelet aggregation
same,effect on the lysosomal glycosidase activity,lysosomal glycosidases,normalizing effect
same,β-galactosidase activity,"β-galactosidase; after 10 days, p < 0.05 vs. Group II (14.74), Group I 11.53",12.33 ± 1.95
same,β-galactosidase activity,"β-galactosidase; after 30 days, p < 0.001 vs. Group II (7.39), Group I 8.90",10.28 ± 0.55
same,α-mannosidase activity,"α-mannosidase; after 10 days, p < 0.001 vs. Group II (8.60), Group I 8.72",12.49 ± 1.34
same,α-mannosidase activity,"α-mannosidase; after 30 days, p < 0.001 vs. Group II (5.69), Group I 6.57",5.99 ± 0.54
same,β-glucuronidase activity,"β-glucuronidase; after 10 days, p < 0.025 vs. Group II (3.33), Group I 4.82",4.02 ± 0.65
same,β-glucuronidase activity,"β-glucuronidase; after 30 days, p < 0.05 vs. Group II (2.31), Group I 2.26",2.49 ± 0.25
